Results published in US8759379B2, “Inhibitors of cytochrome P450” (Gilead Sciences, Inc., priority 2008, dated 2014).
pIC50: −log10 of the molar value.

The compounds below were run against T1, CYP450 3A4 (Homo sapiens, UniProt P08684) (assay: CYP3A inhibition assay (terfenadine oxidase, human hepatic microsomal fraction)). Settings: pooled human hepatic microsomes 0.25 mg/mL, terfenadine 3 μM.
T1 construct: Pooled (n≧15 donors) human hepatic microsomal fraction was obtained from BD-Gentest; tissue BD-Gentest (Woburn, Mass.); host or cells: pooled human liver microsomes (n≥15 donors)
T1 sequence (P08684 whole entry): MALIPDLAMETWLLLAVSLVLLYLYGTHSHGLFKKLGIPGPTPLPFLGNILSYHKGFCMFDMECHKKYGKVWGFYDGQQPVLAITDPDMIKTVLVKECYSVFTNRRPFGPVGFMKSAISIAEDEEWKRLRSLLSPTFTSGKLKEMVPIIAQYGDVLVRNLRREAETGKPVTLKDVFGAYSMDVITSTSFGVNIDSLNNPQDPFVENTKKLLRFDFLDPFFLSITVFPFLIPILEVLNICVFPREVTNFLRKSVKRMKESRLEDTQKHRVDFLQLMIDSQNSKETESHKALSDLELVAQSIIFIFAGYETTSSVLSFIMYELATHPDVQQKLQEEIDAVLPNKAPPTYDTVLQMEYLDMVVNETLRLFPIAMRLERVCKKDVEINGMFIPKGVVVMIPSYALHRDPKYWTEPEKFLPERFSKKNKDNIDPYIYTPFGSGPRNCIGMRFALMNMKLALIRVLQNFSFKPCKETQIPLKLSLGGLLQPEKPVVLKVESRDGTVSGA
Format: biochemical
Procedure: Pooled (n≧15 donors) human hepatic microsomal fraction was obtained from BD-Gentest (Woburn, Mass.) who also supplied hydroxy-terfenadine, 4′-hydroxydiclofenac and NADPH regenerating system. Ritonavir was prepared from commercial Norvir® oral solution (Abbott Laboratories, Abbott Park, Ill.). Other reagents were from Sigma-Aldrich (St. Louis, Mo.) and included terfenadine, fexofenadine, BRL 15572, diclofenac and mefenamic acid.
Incubations were performed in duplicate in 50 mM potassium phosphate buffer, pH 7.4 with NADPH regenerating system used as described by the manufacturer. […] The final substrate concentrations used were equal to the apparent Km values for the activities determined under the same conditions. Inhibitors were dissolved in DMSO, and the final concentration of DMSO, from both substrate and inhibitor vehicles, was 1% (v/v). Incubations were performed at 37° C. with shaking and were initiated by addition of substrate. Aliquots were then removed at 0, 7 and 15 minutes. Samples were quenched by treatment with an acetonitrile, formic acid, water (94.8%/0.2%/5%, v/v/v) mixture containing internal standard. Precipitated protein was removed by centrifugation at 3000 rpm for 10 min and aliquots of the supernatant were then subjected to LC-MS analysis.
The LC-MS system consisted of a Waters Acquity UPLC, with a binary solvent manager and a refrigerated (8° C.) sample organizer and sample manager, interfaced to a Micromass Quattro Premier tandem mass spectrometer operating in electrospray ionization mode. The column was a Waters Acquity UPLC BEH C18 2.1×50 mm, 1.7 μm […]. Mobile phases consisted of mixtures of acetonitrile, formic acid and water, the composition for mobile phase A being 1%/0.2%/98.8% (v/v/v) and that for mobile phase B being 94.8%/0.2%/5% (v/v/v). The injection volumes were 5 μL and the flow rate was 0.8 mL/min. Concentrations of metabolites were determined by reference to standard curves generated with authentic analytes under the same conditions as the incubations. […]
In the case of `CC(C)CN(CC[C@H](Cc1ccccc1)NC(=O)O[C@H]1CO[C@H]2OCC[C@H]21)S(=O)(=O)c1ccc(N)cc1` [Example 27], the pIC50 was 6.30 to 6.70. Compound `CC(C)CN(CC[C@H](Cc1ccccc1)NC(=O)O[C@H]1CCOC1)S(=O)(=O)c1ccc(N)cc1` [Example 28] has a pIC50 of 6.00 to 6.30. For `CC(C)c1nc(CN(C)C(=O)N[C@H](C(=O)N[C@H](CCN(Cc2ccccc2)C(=O)OCc2cncs2)Cc2ccccc2)C(C)C)cs1` [Example 103], the pIC50 was 6.70 to 7.00.
